Data on six compounds can be found in PubChem BioAssay (NCI).

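In this assay, cells in 96-well plates receive the compound at five concentrations for 48 hours. Endpoints are linearly interpolated between the surrounding concentrations. GI50 is the concentration that inhibits growth by half. TGI denotes the concentration required for complete inhibition of growth.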

Some test systems named below: IGROV1 ovarian; SK-MEL-2 melanoma; HCT-15 colon; OVCAR-4 ovarian; OVCAR-3 ovarian; K-562 leukemia; MOLT-4 leukemia; UACC-62 melanoma; OVCAR-8 ovarian; UO-31 renal.
Experiment in all cases: NCI tumour cell line growth inhibition, 48 h

Regarding `CSc1ccccc1C#C/C=C\C#Cc1ccccc1N1CCCC1=O`, the GI50 with IGROV1 ovarian is 14.9 µM; with OVCAR-4 ovarian, more than 22.1 µM; in the assay with OVCAR-8 ovarian, more than 13.1 µM. Further, the TGI in the assay with IGROV1 ovarian is more than 50 µM; in the assay with SK-MEL-2 melanoma, more than 50 µM; in the assay on HCT-15 colon, more than 50 µM; in the assay with OVCAR-4 ovarian it was more than 50 µM; in the assay on OVCAR-3 ovarian, more than 14 µM; in the assay on K-562 leukemia, more than 12.2 µM. Besides, the TGI is more than 17.6 µM in the assay on MOLT-4 leukemia, more than 50 µM with UACC-62 melanoma, more than 50 µM in the assay on OVCAR-8 ovarian and more than 50 µM in the assay with UO-31 renal.

As for `O=C(Nc1ccc(I)cc1)c1cc([N+](=O)[O-])ccc1O`, the GI50 in the assay on IGROV1 ovarian was 13.8 µM; in the assay with SK-MEL-2 melanoma, 3.54 µM; in the assay on HCT-15 colon it was 5.77 µM; in the assay with OVCAR-4 ovarian, 4.57 µM; in the assay on OVCAR-3 ovarian, 3.74 µM; in the assay with K-562 leukemia, 4.69 µM. Also, the GI50 in the assay with MOLT-4 leukemia is 4.67 µM; in the assay on UACC-62 melanoma it was 3.38 µM; in the assay with OVCAR-8 ovarian it was 7.21 µM; in the assay with UO-31 renal it was 3.77 µM. The TGI is more than 100 µM with IGROV1 ovarian; 20.1 µM in the assay with SK-MEL-2 melanoma; 38.9 µM in the assay with HCT-15 colon; 90.8 µM in the assay with OVCAR-4 ovarian; 32.1 µM in the assay on OVCAR-3 ovarian; more than 100 µM with K-562 leukemia. In addition, the TGI with MOLT-4 leukemia worked out at 51.3 µM; in the assay with UACC-62 melanoma, 14.1 µM; in the assay on OVCAR-8 ovarian it was 25.8 µM; in the assay with UO-31 renal, 47.6 µM.

As for `CCOC(=O)Nc1nc2ccc(OCC)cc2s1`, the GI50 in the assay with IGROV1 ovarian was 31.7 µM; in the assay on SK-MEL-2 melanoma it was 40.3 µM; in the assay on HCT-15 colon, 5.12 µM; in the assay with OVCAR-4 ovarian, more than 82.5 µM; in the assay on OVCAR-3 ovarian, more than 41.6 µM; in the assay with K-562 leukemia, 3.17 µM. Also, the GI50 in the assay on MOLT-4 leukemia was 59.4 µM; in the assay with UACC-62 melanoma, 13.4 µM; in the assay on OVCAR-8 ovarian, 47.7 µM; in the assay with UO-31 renal it was more than 100 µM. Further, the TGI in the assay with IGROV1 ovarian, in the assay on SK-MEL-2 melanoma, in the assay on HCT-15 colon, in the assay with OVCAR-4 ovarian, in the assay with OVCAR-3 ovarian and in the assay with K-562 leukemia was more than 100 µM throughout. Moreover, the TGI in the assay on MOLT-4 leukemia, in the assay on UACC-62 melanoma, in the assay with OVCAR-8 ovarian and in the assay with UO-31 renal was more than 100 µM each time.

Consider `Clc1cccc(Cc2cn3cc(-c4ccccc4)nc3s2)c1Cl`, for which the GI50 in the assay with IGROV1 ovarian is 31.4 µM; with SK-MEL-2 melanoma, 22.3 µM; in the assay with HCT-15 colon, more than 100 µM; in the assay on OVCAR-4 ovarian it was 3.85 µM; with OVCAR-3 ovarian it was 37.9 µM; in the assay with K-562 leukemia, more than 100 µM. Further, the GI50 is more than 100 µM with MOLT-4 leukemia, 1.83 µM in the assay with UACC-62 melanoma, 23.5 µM in the assay on OVCAR-8 ovarian and more than 100 µM with UO-31 renal. The TGI with IGROV1 ovarian is more than 100 µM; in the assay on SK-MEL-2 melanoma, 80.8 µM; in the assay on HCT-15 colon it was more than 100 µM; in the assay with OVCAR-4 ovarian, 55.2 µM; in the assay with OVCAR-3 ovarian, more than 100 µM; in the assay on K-562 leukemia, more than 100 µM. Also, the TGI with MOLT-4 leukemia, with UACC-62 melanoma, in the assay with OVCAR-8 ovarian and in the assay with UO-31 renal was more than 100 µM in each case.

On to `O=C(N/C(=C\c1cc(Cl)ccc1Cl)c1nc2[nH]c(=S)[nH]c(=O)c2[nH]1)c1ccccc1`, for which the TGI with IGROV1 ovarian is more than 70.6 µM; with SK-MEL-2 melanoma, more than 100 µM; in the assay with HCT-15 colon, more than 51 µM; with OVCAR-4 ovarian it was more than 100 µM; in the assay on OVCAR-3 ovarian it was more than 100 µM; in the assay with K-562 leukemia it was more than 62.6 µM. In addition, the TGI with MOLT-4 leukemia was more than 80.8 µM; in the assay with UACC-62 melanoma, more than 92.9 µM; in the assay on OVCAR-8 ovarian it was more than 71.8 µM; in the assay with UO-31 renal, more than 76.4 µM.

For the compound `CN(C)c1ccc(-c2cc(-c3ccc(Nc4nc(Nc5ccc(Cl)cc5)nc(Nc5ccc(Cl)cc5)n4)cc3)no2)cc1`, the GI50 in the assay on IGROV1 ovarian was 2.06 µM; with SK-MEL-2 melanoma, 2.87 µM; with HCT-15 colon it was 5.2 µM; in the assay on OVCAR-4 ovarian, 7.19 µM; with OVCAR-3 ovarian, 3.42 µM; in the assay on K-562 leukemia it was 1.72 µM. Moreover, the GI50 in the assay with MOLT-4 leukemia was 1.32 µM; in the assay with UACC-62 melanoma it was 17.1 µM; in the assay on OVCAR-8 ovarian, 5.91 µM; in the assay with UO-31 renal, 2.69 µM. The TGI was 15 µM in the assay on IGROV1 ovarian; 11 µM in the assay with SK-MEL-2 melanoma; more than 100 µM in the assay with HCT-15 colon; more than 100 µM in the assay on OVCAR-4 ovarian; 8.96 µM with OVCAR-3 ovarian; 5.3 µM with K-562 leukemia. Besides, the TGI with MOLT-4 leukemia is 3.38 µM; in the assay on UACC-62 melanoma it was 62.2 µM; in the assay with OVCAR-8 ovarian, 39 µM; with UO-31 renal, 17.7 µM.
